Assay results: US20260000658A1, “METHODS FOR THE TREATMENT OF PROLIFERATIVE GLOMERULONEPHRITIS” (INSTITUT NATIONAL DE LA SANTÉ ET DE LA RECHERCHE MÉDICALE, priority 2022, published 2026)

Experiments:
[1] = system: uninephrectomized Tg26^HE mice; experiment: Uninephrectomized Tg26^HE mice (accelerated collapsing glomerulopathy model), vehicle or alpelisib for 4 weeks; format: in vivo, mouse
Method: Scale bar P-S6RP, and P-AKTSer473 mean intensity quantification (n=5-6 mice per group). P. Serum creatinine level, and Blood urea nitrogen level of Tg26WT and Tg26HE mice at the time of sacrifice (4 weeks following uninephrectomy and treated either with vehicle or alpelisib) (n=8-9 mice per group)
(§1) For the uninephrectomy experiments, the right kidneys were removed under anesthesia. For the medical treatment of mice, 50 mg kg −1 alpelisib (MedChem Tronica) in 1% carboxymethylcellulose (Sigma Aldrich)+0.5% Tween (Sigma Aldrich) or vehicle (1% carboxymethylcellulose+0.5% Tween) was administered by oral gavage daily for the indicated periods of time. Blood and urines were obtained at the indicated times. At euthanasia, blood, urines, kidneys were harvested. In some experiments, spleens, hearts, and bone marrow (BM) in femurs and tibias were harvested as well. Tissues were fixed in 4% paraformaldehyde and paraffin embedded for immunohistochemical analysis, snap-frozen in Optimal Cutting Temperature (OCT), or stored at −80° C. for mRNA or protein analysis.
(§2) Mouse blood counts were analyzed using a hematology analyzer (ProCyte Dx; IDEXX Laboratories). Mouse serum creatinine, blood urea nitrogen, urinary albumin, and urinary creatinine were evaluated using an AU5800 (Beckman Coulter) autoanalyzer. Serum anti-dsDNA measurement was performed according to the manufacturer's instruction using mouse anti-dsDNA ELISA kit (LBIS). The absorbance was measured using Ininite M Nano (TECAN).
4-μm kidney sections were stained with periodic acid-Schiff (PAS), Masson's Trichrome (MT), Periodic acid metenamine silver (PAM) or Hematoxylin and Eosin (HE) staining for histological analysis. The degree of glomerular lesions was evaluated using the following scoring system: 0=no lesion, 1=affecting up to 25% of the glomerulus, 2=affecting 25-50% of the glomerulus, 3=affecting 50-75% of the glomerulus, and 4=affecting 75-100%. At least 50 glomeruli per sample were measured for each analysis. An indirect immunoperoxidase method was used for immunohistochemistry. Briefly, after deparaffinization, antigen retrieval was performed with citrate buffer (pH6) or Tris-EDTA buffer (pH9 or pH6) using microwave or high temperature (95° C.). Endogenous peroxidase activity was quenched using 3% hydrogen peroxide; nonspecific protein binding was blocked using 2.5% normal horse serum (Vector Laboratories), and endogenous biotin activity was quenched using the Avidin/Biotin Blocking Kit (Vector Laboratories). When using mouse primary antibodies on mouse tissue, Klear mouse blocking reagent (Diagomics) was used to block endogenous mouse immunoglobulins. After blocking, the tissue sections were incubated with the primary antibodies overnight at 4° C. The following primary antibodies were used: rabbit anti-Ki67 antibody (SP6; Thermo Fisher Scientific), rabbit anti-P-S6RP antibody (D68F8; Cell Signaling Technology), mouse anti-P-AKT (Ser473) antibody (587F11; Cell Signaling Technology), rabbit anti-P-AKT (Thr308) antibody (C31E5E; Cell Signaling Technology), mouse anti-S6RP antibody (54E2; Cell Signaling Technology), chicken anti-GFP antibody (Abcam), guinea pig anti-Nephrin antibody (GP-N2; Progen), rabbit anti-Podocin antibody (P0372; Sigma Aldrich), mouse anti-WTI antibody (6F-H2; DAKO). The corresponding secondary antibodies including anti-mouse IgG, anti-rabbit IgG, anti-guinea pig IgG, biotinylated anti-rabbit IgG (Vector Laboratories), and biotinylated anti-mouse IgG (Vector Laboratories) were applied. For Avidin/Biotin detection, an R.T.U. Vectastain Kit (Vector Laboratories) or streptavidin (Thermo Fisher Scientific) was used. The immunoreactive antigens sites were detected with hydrogen peroxide and diaminobenzidine. For frozen immunofluorescent staining, frozen tissue sections (4 μm) were briefly air dried and fixed in 50% methanol/50% acetone. […]

NZBWF1/J mice = experiment: Uninephrectomized NZBWF1/J mice (lupus nephritis model), vehicle or alpelisib for 4 weeks; format: in vivo, mouse
Source text: A. Urinary albumin to creatinine ratio B. Blood urea nitrogen level, C. kidney to body weight ratio of NZBWF1/J mice at the time of sacrifice (4 weeks following either sham operation or uninephrectomy followed by the treatment either with vehicle or alpelisib) (n=5-15 mice per group). D. Representative P-S6RP/Nephrin coimmunofluorescence staining of kidneys from 4 weeks following either sham operation or uninephrectomy followed by the treatment either with vehicle or alpelisib) (n=4-6 mice per group). Scale bar […]. E. P-S6RP mean intensity quantification (n=4-6 mice per group). F. Col3a, G. Col1a, and H. Tnfα quantification of qRT-PCR analysis in the kidney cortex of kidneys at the time of sacrifice (4 weeks following either sham operation or uninephrectomy followed by the treatment either with vehicle or alpelisib) (n=5-15 mice per group). I. Kaplan-Meier survival curves of MRL-lpr mice treated either with vehicle or alpelisib (n=13-14 mice per group). J. Urinary albumin to creatinine ratio of MRL-lpr mice treated either with vehicle or alpelisib from 8 weeks old till death (n=13-14 mice per group). K. Vehicle treated mice, and L. alpelisib treated mice of the trajectory of urinary albumin to creatinine ratio of MRL-lpr mice (n=13-14 mice per group).
as §1, §2
4-μm kidney sections were stained with periodic acid-Schiff (PAS), Masson's Trichrome (MT), Periodic acid metenamine silver (PAM) or Hematoxylin and Eosin (HE) staining for histological analysis. The degree of glomerular lesions was evaluated using the following scoring system: 0=no lesion, 1=affecting up to 25% of the glomerulus, 2=affecting 25-50% of the glomerulus, 3=affecting 50-75% of the glomerulus, and 4=affecting 75-100%. At least 50 glomeruli per sample were measured for each analysis. An indirect immunoperoxidase method was used for immunohistochemistry. Briefly, after deparaffinization, antigen retrieval was performed with citrate buffer (pH6) or Tris-EDTA buffer (pH9 or pH6) using microwave or high temperature (95° C.). Endogenous peroxidase activity was quenched using 3% hydrogen peroxide; nonspecific protein binding was blocked using 2.5% normal horse serum (Vector Laboratories), and endogenous biotin activity was quenched using the Avidin/Biotin Blocking Kit (Vector Laboratories). When using mouse primary antibodies on mouse tissue, Klear mouse blocking reagent (Diagomics) was used to block endogenous mouse immunoglobulins. After blocking, the tissue sections were incubated with the primary antibodies overnight at 4° C. […]

[2] = 4 weeks treatment, at sacrifice

For `Cc1nc(NC(=O)N2CCC[C@H]2C(N)=O)sc1-c1ccnc(C(C)(C)C(F)(F)F)c1` [alpelisib, Alpelisib], the “AKT/mTOR pathway in glomeruli” value ([1]; 4 weeks treatment) was “profoundly blunted”, the “expression of Col1a, Col3a and Lcn2” value ([1]; 4 weeks treatment) was “reduced expression” and the “expression of podocyte markers” value ([1]; 4 weeks treatment) was “maintained expression of podocyte markers”. The “glomerular lesions, kidney histology” value ([1]; 4 weeks treatment) was “fewer glomerular lesions”, the ratio kidney/body weight ([1]; 4 weeks treatment) was “improved” and the albuminuria ([1]; 4 weeks treatment, vs vehicle) was “significantly improved”. For the same molecule, the “kidney function (serum creatinine, blood urea nitrogen)” value ([1]; 4 weeks treatment, vs vehicle) was “significantly improved”, the “kidney lesions (title of FIG. 3)” value ([1]; accelerated mouse model of collapsing glomerulopathy) was “improves kidney lesions” and the “surfaces of the kidneys at sacrifice” value ([1]; uninephrectomy at 4 weeks old, 4 weeks treatment) was “regular and smooth”. The anemia (NZBWF1/J mice; 4 weeks treatment) was “partial correction of anemia”, the “glomerular AKT/mTOR pathway activation (P-S6RP)” value (NZBWF1/J mice; 4 weeks treatment) was “blunted” and the “glomerular IgG, IgM and C3 deposits” value (NZBWF1/J mice; 4 weeks treatment) was “significantly reduced”. For the same molecule, the “level of dsDNA” value (NZBWF1/J mice; 4 weeks treatment) was “tendency to decrease”, the platelet count (NZBWF1/J mice; 4 weeks treatment) was “significant increase in platelet count” and the podocyte differentiation markers (NZBWF1/J mice; 4 weeks treatment) was “significantly improved”. For the same molecule, the “blood urea nitrogen levels” value (NZBWF1/J mice; [2]) was “lower blood urea nitrogen levels”, the “kidney to body weight ratio” value (NZBWF1/J mice; [2]) was “significantly reduced” and the “glomeruli, histological level” value (NZBWF1/J mice; 4 weeks treatment, vs vehicle) was “preserved glomeruli”. For the same molecule, the “kidney lesions (title of FIG. 4)” value (NZBWF1/J mice; Lupus Nephritis models (NZBWF1/J and MRL-lpr)) was “improves kidney lesions”, the spleen size (NZBWF1/J mice; both sham and uninephrectomized mice) was “significantly reduced” and the “albuminuria (urinary albumin to creatinine ratio)” value (NZBWF1/J mice; females, uninephrectomy at 24 weeks, 4 weeks treatment, at sacrifice) was “significantly less albuminuria”. The “Col1a and Col3a mRNA expression” value (NZBWF1/J mice; kidney cortex, qRT-PCR) was “reduced”, the “TNFa mRNA expression” value (NZBWF1/J mice; kidney cortex, qRT-PCR) was “reduced” and the “progression of glomerular lesions” value (NZBWF1/J mice; sacrifice vs kidney removed at uninephrectomy) was “remained stable”.
